Reference: article PMC4411097, “Pachymic Acid Inhibits Growth and Induces Apoptosis of Pancreatic Cancer In Vitro and In Vivo by Targeting ER Stress” (PLoS ONE, 2015)

System: PARP cleavage (c-PARP) in MIA PaCa-2 cells
Test: Western blot for PARP cleavage (c-PARP)
Type: cell-based, human
Conditions: MIA PaCa-2, PA 0–30 μM, 24 h
Procedure: Apoptosis induction in PA-treated cells was assessed by quantitation of cytoplasmic histone-associated DNA fragments and western blotting for PARP cleavage (c-PARP). The Cell Death Detection ELISA^PLUS Kit (Roche, Indianapolis, IN) was used to detect the amount of cytoplasmic histone-associated DNA fragments according to the manufacturer’s instructions and expressed relative to vehicle-treated cells (set equal to 1).
PANC-1, MIA PaCa-2 cells were treated with PA (0–30 μM) for 10 min, 30 min or 24 h, respectively. Whole protein extracts isolated from cells and tumor tissues were prepared and western blot analysis with anti-cleaved PARP, anti-XBP-1s, anti-ATF6, anti-ATF4, anti-Hsp70, anti-CHOP, anti-phospho-eIF2α or anti-eIF2α antibodies were performed as previously described. Western blots were quantified with HP-Scanjet 550c and analyzed by UN-SCAN-IT software (Silk Scientific, Orem, UT). Three independent experiments were done for all the immunoblot studies and quantitative data composed of all the experiments with statistical analysis were added below the representative blot image.

C=C(CC[C@@H](C(=O)O)[C@H]1[C@H](O)C[C@@]2(C)C3=C(CC[C@]12C)[C@@]1(C)CC[C@H](OC(C)=O)C(C)(C)[C@@H]1CC3)C(C)C [PA, Pachymic acid]
Increase in expression of PARP cleavage vs vehicle-treated control: ~4 fold
